Drawing on ChEMBL document CHEMBL3808327, “Natural Products as Sources of New Drugs from 1981 to 2014” (J Nat Prod, 2016), this text covers IC50 for one compound.

The target in this assay is Serine/threonine-protein kinase B-raf (Homo sapiens, UniProt P15056, V600E). The experiment in a line: Inhibition of N-terminal his-tagged BRAF V600E mutant (448 to 723 residues) (unknown origin) expressed in Escherichia coli BL21(DE3) cells assessed as phosphorylation of biotinylated-MEK by AlphaScreen assay. (Bead proximity is the source of the signal in Alpha formats.)
Chain of Serine/threonine-protein kinase B-raf (P15056 2-766 V600E limits assumed): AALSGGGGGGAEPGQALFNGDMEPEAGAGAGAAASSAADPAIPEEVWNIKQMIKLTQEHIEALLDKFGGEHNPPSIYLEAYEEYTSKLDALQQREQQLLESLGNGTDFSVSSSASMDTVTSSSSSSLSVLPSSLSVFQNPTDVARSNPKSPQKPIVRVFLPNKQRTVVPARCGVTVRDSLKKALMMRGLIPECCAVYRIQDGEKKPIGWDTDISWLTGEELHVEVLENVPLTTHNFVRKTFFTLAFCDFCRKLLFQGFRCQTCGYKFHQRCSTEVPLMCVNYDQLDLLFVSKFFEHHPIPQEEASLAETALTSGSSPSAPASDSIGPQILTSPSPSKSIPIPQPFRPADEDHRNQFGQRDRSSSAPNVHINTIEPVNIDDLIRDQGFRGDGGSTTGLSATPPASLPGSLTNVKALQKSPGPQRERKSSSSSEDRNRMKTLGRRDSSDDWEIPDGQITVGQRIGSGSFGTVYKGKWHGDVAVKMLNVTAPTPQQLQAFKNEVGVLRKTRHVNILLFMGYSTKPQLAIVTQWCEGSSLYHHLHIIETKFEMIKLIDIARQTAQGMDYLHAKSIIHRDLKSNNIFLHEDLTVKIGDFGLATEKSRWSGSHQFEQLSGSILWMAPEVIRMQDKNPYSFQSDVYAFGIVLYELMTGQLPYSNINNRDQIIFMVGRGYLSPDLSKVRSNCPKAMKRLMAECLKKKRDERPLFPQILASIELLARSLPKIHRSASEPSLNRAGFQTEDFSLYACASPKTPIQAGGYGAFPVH

Regarding `c1ccc(Nc2c[nH]c3ncccc23)cc1`, the IC50 (as a rule, the concentration that inhibits the measured activity by half) is above 100 µM.
